We go through two compounds from patent publication US20120172228A1, “ALCOHOL ALKOXYLATES AS ADJUVANTS FOR AGROCHEMICAL FORMULATIONS” (SYNGENTA CROP PROTECTION, LLC, priority 2009, published 2012).

Holding throughout (type): in vivo
For data set [1], the system named is French bean. As to the kind of experiment: Phytotoxicity of adjuvant to French bean. Particulars: 7 days after spray application. As to the method: (§1) The plants were sprayed with water at a rate of approximately 500 litres per hectare, the water containing 0.1% v/v or 0.2% v/v adjuvant. The plants were assessed for phytotoxicity 7 days after spray application. Each experiment was replicated twice and the results averaged. In the control experiment the plants were sprayed with water and no phytotoxicity was observed.

Data set [2] deals with Chinese cabbage. Nature of the data set: Phytotoxicity of adjuvant to Chinese cabbage. Particulars: 7 days after spray application. As to the method: as §1
The test system of data set [3] is soybean. Nature of the data set: Phytotoxicity of adjuvant to soybean. As to conditions: 7 days after spray application. As for the experimental part: as §1
The test system of data set [4] is amaranthus tuberculatus (AMATU). As to the kind of experiment: Adjuvant with herbicide mesotrione on AMATU.
Data set [5] relates to brachiaria platyphyla (BRAPL). As to the kind of experiment: Adjuvant with herbicide mesotrione on BRAPL.
The subject of data set [6] is polygonum convolvulus (POLCO). Nature of the data set: Adjuvant with herbicide mesotrione on POLCO.
In data set [7] the test system is brachiaria decumbens (BRADE), digitaria sanguinalis (DIGSA), polygonum convolvulus (POLCO), amaranthus retroflexus (AMARE). Nature of the data set: Adjuvant with herbicide mesotrione, mean across four weed species (Example 28). As to conditions: mesotrione 45 or 90 g/ha; Sample 28 0.2%, Tween 20 0.5%; 7, 14 and 21 days. As for the experimental part:
(§2) In this example Sample 13 from Table 1 was compared to the oil adjuvant blend Turbocharge™. The herbicide fomesafen was applied to the weed species xanthium strumarium (XANST), setaria viridis (SETVI), abutilon theophrasti (ABUTH), and chenopodium album (CHEAL) at rates of 60 or 120 grams per hectare, using a laboratory track sprayer. Each experiment was replicated four times and the percentage damage to the weeds was assessed visually at time periods of 7, 14 and 21 days after application. Each adjuvant was applied at a rate of 0.5% of the volume of the spray water. Four effects were evaluated: pesticide rate (2 levels), adjuvant type (two levels), weed species (four levels) and days after application (three levels). […] The effect of each adjuvant was pulled out from the model and the least significant differences evaluated using a Student's t method. […]
In this example the rate response of a non-ethoxylated butylene oxide adjuvant was measured at an adjuvant rate of 0.2% by volume in order to display the excellent performance of this adjuvant compared to the commercial adjuvant' Tween 20, which was used at a rate of 0.5% by volume. […] In each case the experiments were replicated three times and the percentage damage to the weeds was assessed visually at time periods of 7, 14 and 21 days after application. […]

For data set [8], the system named is brachiaria platyphyla (BRAPL), digitaria sanguinalis (DIGSA), polygonum convolvulus (POLCO), amaranthus tuberculatus (AMATU). Nature of the data set: Adjuvant with herbicide mesotrione, track sprayer, mean across four weed species.
Data set [9] concerns brachiaria platyphyla (BRAPL), digitaria sanguinalis (DIGSA), polygonum convolvulus (POLCO). Nature of the data set: Adjuvant with herbicide mesotrione, mean across three weed species (Example 20). As to conditions: mesotrione 30, 60 or 90 g/ha; Sample 13 0.2%, Tween 20 0.5%; 14 and 21 days. As for the experimental part: as §2, with “levels). A standard simple linear model was constructed to judge the significance of these effects.” for “levels).”
In this example the rate response of the butylene oxide adjuvant 13 of Table 1 was measured to display the excellent performance of this adjuvant compared to the commercial adjuvant Tween™20, used at a rate of 0.5% by volume. […] In each case the experiments were replicated four times and the percentage damage to the weeds was assessed visually at time periods of 14 and 21 days after application.

For data set [10], the system named is digitaria sanguinalis (DIGSA). As to the kind of experiment: Adjuvant with herbicide mesotrione on DIGSA.
The mark [11] stands for this setting: mesotrione 45 and 90 g/ha, adjuvants 0.5% of spray water, 7, 14 and 21 days after application.
[12] abbreviates: mesotrione 45 or 90 g/ha, Sample 27 0.2%, Tween 20 0.5%, 7, 14 and 21 days.
[13] abbreviates: mesotrione 30, 60 or 90 g/ha, Sample 13 0.2%, Tween 20 0.5%, 14 and 21 days.

Regarding `CCCCCCCC/C=C\CCCCCCCCOCCOCCOCCOCCOCCOCCOCCOCCOCCOCCO` [Genapol O100], the entries for the “French bean % phytotoxicity” value in data set [1] (0.1% v/v adjuvant in water) and in [1] (0.2% v/v adjuvant in water) were 5% and 10%, respectively. Moreover, the results for the “Chinese cabbage % phytotoxicity” value in data set [2] (0.1% v/v adjuvant in water) and in data set [2] (0.2% v/v adjuvant in water) were 2% and 10%, respectively. The values for the Soybean % phytotoxicity in data set [3] (0.1% v/v adjuvant in water) and in data set [3] (0.2% v/v adjuvant in water) were 3.5% and 15%, respectively.

Consider Tween 20, for which the “mean efficacy (percentage damage to the weeds), AMATU” value in data set [4] (setting [11]) is given as 66.94; AB %; in data set [4] (setting [12]), 69.86; A %. The “mean efficacy (percentage damage to the weeds), BRAPL” value in data set [5] (setting [13]) is on record as 26.11; B %; in data set [5] (setting [11]) it was 44.72; B %; in data set [5] (setting [12]), 33.06; B %. Also, the “mean efficacy (percentage damage to the weeds), POLCO” value in data set [6] (setting [13]) is given as 32.77; B %; in data set [6] (setting [11]), 95.44; A %; in data set [6] (setting [12]), 73.61; A %. Further, the Mean kill (%) in [7] was 65.8%. For the same compound, the figures for the “mean efficacy (percentage damage to the weeds), All weeds” value in data set [8] (setting [11]), in [8] (setting [12]) and in data set [9] were 63.861; B %, 54.54; A % and 26.11; B %, respectively. The “mean efficacy (percentage damage to the weeds), DIGSA” value is 45.55; A % in data set [10] (setting [13]), 48.33; B % in data set [10] (setting [11]) and 41.67; A % in data set [10] (setting [12]).
